The nature of data set [1]: Bone marrow erythroid progenitor colony assay, 14 days. The settings on record: human, read-out: Mean CC50 ± SD in Bone marrow cells Erythroid; for CC50 at 14 days: human bone marrow erythroid progenitors. In kind it is cell-based, human.
A short description of data set [2]: Bone marrow myeloid progenitor colony assay, 14 days. In kind it is cell-based, human. Particulars: human, read-out: Mean CC50 ± SD in Bone marrow cells Myeloid; for CC50 at 14 days: human bone marrow myeloid progenitors.
For data set [3], the target named is T1, recombinant human PolRMT (Homo sapiens, UniProt O00411).
T1 construct: purchased Enzymax (Lexington, KY)
In words: Inhibition of PolRMT-catalyzed RNA synthesis. It counts as biochemical. Particulars: triphosphate form of the compound tested (Table 4); read-out: Mean IC50 ± SD for PolRMT. From the text:
Activated fish sperm DNA was purchased from USB/Affymetrix (Santa Clara, CA) and used as a template for the DNA polymerases alpha, beta, and gamma. […] The RNA and DNA oligonucleotides used in the mitochondrial RNA polymerase assay (see Table S1 in the supplemental material) were synthesized and PAGE purified by Thermo Scientific/Dharmacon (Lafayette, CO). RNA primer R12 was 5′-^32P-phosphorylated with [γ-^32P]ATP (3,000 Ci/mmol) and T4 kinase (New England BioLabs, Ipswich, MA).
(§1) Human DNA polymerase alpha, isolated from HeLa cell extracts, was from CHIMERx (Madison, WI). Recombinant human DNA polymerase beta, expressed in E. coli, was a gift from Zucai Suo at The Ohio State University. Recombinant human DNA polymerase gamma (including both the large subunit and the small subunit) was cloned, expressed, and purified from insect cells by Gilead Sciences (Foster City, CA) ([13]). RNA PolII was purchased as part of the HeLaScribe nuclear extract in vitro transcription system kit from Promega (Madison, WI). The recombinant human PolRMT and the transcription factors mitochondrial transcription factor A (mtTFA) and B2 (mtTFB2) were purchased from Enzymax (Lexington, KY). FLAG epitope-tagged RNA PolI and PolIII complexes were isolated from rat NSN1 cells and HeLa cells, respectively ([17], [18]). The inhibition of DNA polymerases alpha, beta, and gamma, PolRMT, and PolII and the rate of single-nucleotide incorporation by PolRMT have been described previously in detail ([12], [13], [19]). Inhibition of RNA PolI and PolIII was studied using published methods ([20], [21]). All concentrations were final unless noted otherwise. […] After incubation at 30°C for 20 min to 1 h, the reactions were terminated by pipetting the mixtures onto DEAE-cellulose discs (DE81; Whatman), and the products analyzed as described previously ([20], [21]).

A short description of data set [4]: Cytotoxicity in quiescent PBMCs, 5 days. Particulars: human, quiescent PBMCs.
Protocol: (§2) Human peripheral blood mononuclear cells (PBMCs) were isolated from human buffy coats obtained from healthy volunteers (Stanford Blood Bank, Palo Alto, CA) using standard Ficoll separation and stimulated as described elsewhere ([13]) and were tested at both quiescent and stimulated stages. Quiescent PBMCs were stimulated with 10 units per ml of recombinant human interleukin 2 (hIL-2) and 1 μg per ml phytohemagglutinin P (PHA-P) for 48 h prior to drug treatment.
(§3) All cells were cultured at 37°C in a 5% CO2 incubator with 90% humidity unless noted otherwise. […] All cells were treated with the various compounds for 5 days, except for human erythroid and myeloid progenitors, which were treated for 14 days. After the incubation period, cell viability was measured by the addition of CellTiter Glo viability reagents (Promega, Madison, WI). The luminescence signal was quantified on an Envision luminescence plate reader (PerkinElmer, Waltham, MA) after incubation of the reagents and cells for 10 min at room temperature. […] CC50 values were calculated as the average of the results of three or four independent experiments.
(§4) Human peripheral blood mononuclear cells (PBMCs) were isolated from human buffy coats
(§5) obtained from normal healthy volunteers (Stanford Medical School Blood Center, Palo Alto,
(§6) CA). Total PBMCs were isolated from buffy coats using standard Ficoll separation and sterile
(§7) cellular isolation techniques performed in a bio-safety cabinet (1). Except where noted, the
(§8) procedure was carried out at room temperature. The final PBMCs pellet was resuspended in
(§9) Logan, UT), penicillin 100 units/mL and streptomycin 100 µg/mL (Gibco). For quiescent
(§10) PBMCs cultures, total cells were seeded in 96-well plates at a density of 1 x 10^6 cells per well, followed by immediate drug treatment. Stimulated PBMCs cultures were set up by seeding the freshly isolated PBMCs in T-175cm2 tissue culture flasks in 100 mL of RPMI containing the same components as the ones used for the quiescent PBMCs but with the addition of 10 units per mL of recombinant human interleukin-2 (hIL-2, Roche, Indianapolis, IN), and 1 µg per mL phytohemagglutinin-P (PHA-P, Sigma-Aldrich, St. Louis, MO) at density of 2  10^6 cells per mL for 48 hours at 37C in a 5% CO2 incubator with 90% humidity, prior to drug treatment.
Data set [5] in a line: Cytotoxicity in stimulated PBMCs, 5 days. Particulars: human, stimulated PBMCs.
Protocol: as §2, §3, §4, §5, §6, §7, §8, §9, §10
Data set [6] is described as follows: Cytotoxicity in MRC5 fibroblasts, 5-day treatment. Particulars: human, MRC5 fibroblasts.
Protocol: as §3
Cell Culture and Cytotoxicity Studies
(§11) The Huh-7 cells were maintained in growth medium containing Dulbecco's Modified Eagle
(§12) Medium (DMEM, Cellgro) supplemented with 1% Nonessential Amino Acids (NEAA, Cellgro,
(§13) Manassas, VA), 10% fetal bovine serum (FBS, HyClone, Logan, UT) and 1% Penicillin-
(§14) streptomycin-glutamate (PSG, Invitrogen, Carlsbad, CA). The cells were passaged twice weekly
(§15) and maintained at 90% confluence densities.
(§16) The HepG2 cells were maintained in Eagle’s Minimum Essential Medium (EMEM) from ATCC
(§17) (Manassas, VA) supplemented with 10% FBS, 100 units/mL penicillin and 100 µg/mL
(§18) streptomycin (P/S) (Gibco). The cells were passaged twice weekly and maintained at 90%
(§19) The PC-3 cells were maintained in Kaighn’s F12 medium (Gibco, Carlsbad, CA) supplemented
(§20) with 10% FBS (HyClone, Logan, UT), 100 units/mL penicillin and 100 µg/mL streptomycin
(§21) (P/S) (Gibco). The cells were passaged twice weekly and maintained at 90% confluence. Cells
(§22) between passages 4 and 15 were used in the assays.
(§23) The fibroblast cell line MRC-5 cell line derived from normal lung tissue, was purchased from
(§24) ATCC (Manassas, VA) and cultured in Minimum Essential Medium (MEM) (Cellgro, Manassas,
(§25) VA) supplemented with 10% FBS (HyClone, Logan, UT) and 1% PSG (Invitrogen). The cells
(§26) were passaged twice weekly and maintained at 90% confluence densities.
Data set [7] can be described thus: Cytotoxicity / ATP level in PC-3 cells, 5-day treatment. The settings on record: human, PC-3 cells.
Protocol: as §3
Cell Culture and Cytotoxicity Studies
as §11, §12, §13, §14, §15, §16, §17, §18, §19, §20, §21, §22, §23, §24, §25, §26
Data set [8] is described as follows: Cytotoxicity in HepG2 (galactose) cells, 5-day treatment. Particulars: human, HepG2 cells (galactose).
Protocol: as §3
Cell Culture and Cytotoxicity Studies
as §11, §12, §13, §14, §15, §16, §17, §18, §19, §20, §21, §22, §23, §24, §25, §26
A short description of data set [9]: Cytotoxicity in Huh7 cells, 5-day treatment (CellTiter Glo). Particulars: human, Huh-7 cells. In general terms: In ATP-based viability assays light output follows the ATP content of the culture.
Protocol: as §3
Cell Culture and Cytotoxicity Studies
as §11, §12, §13, §14, §15, §16, §17, §18, §19, §20, §21, §22, §23, §24, §25, §26
For data set [10], the system named is mitochondrial spare respiratory capacity. In words: Oxygen consumption rate / spare respiratory capacity in PC-3 cells. Particulars: human, pH 7.4.
Protocol: Mitochondrial respiration was monitored by measuring the rate of oxygen consumption (OCR) of PC-3 cells after 3-day treatments with the compounds, using a Seahorse extracellular flux analyzer (XF^e-96) based on published protocols ([22][–][24]). The optimal cell seeding was determined by measuring the basal OCR of PC-3 cells that were seeded at different densities of 2.5 × 10^3, 5 × 10^3, 7.5 × 10^3, and 10 × 10^3 cells/well in XF 96-well plates (Seahorse Bioscience, North Billerica, MA) and incubated with 0.5% dimethyl sulfoxide (DMSO) for 3 days. […] Each reagent in the Mito Stress test kit (Seahorse Biosciences), i.e., ATP synthase inhibitor oligomycin, mitochondrial uncoupler carbonyl cyanide-4-(trifluoromethoxy)phenylhydrazone (FCCP), and a fixed-ratio mixture of the mitochondrial complex I (NADH dehydrogenase) inhibitor rotenone and the complex III (CoQH2-cytochrome c reductase) inhibitor antimycin A, was titrated. The lowest concentration that reached the maximal effect was chosen for each reagent. The OCR signals were normalized by cell numbers using DNA content determined by Hoechst's stain as described below.
PC-3 cells were seeded at a density of 5 × 10^3 cells/well in XF 96-well plates and incubated with the compounds for 3 days. On the day of the assay, the cell medium was replaced with XF assay medium (pH 7.4) containing 10 mM glucose and 1 mM freshly prepared pyruvate. Mitochondrial respiration was monitored by measuring OCR on a Seahorse extracellular flux analyzer (XF^e-96). All concentrations listed are the final concentration after mixing unless noted otherwise. […] Spare respiratory capacity was obtained by subtracting the rate of basal respiration from the rate of maximal respiration.
The cells were lysed by freezing at −80°C for >2 h. […] In parallel, another set of cells was treated with the compounds for 3 days and the ATP levels were measured using CellTiter Glo viability reagents (Promega, Madison, WI).
Data set [11] addresses T1, recombinant human PolRMT. Briefly: Single-nucleotide incorporation by PolRMT. It counts as biochemical. Particulars: triphosphate form, fixed saturating concentration 500 μM, rate relative to corresponding natural rNTP.
From the text: Activated fish sperm DNA was purchased from USB/Affymetrix (Santa Clara, CA) and used as a template for the DNA polymerases alpha, beta, and gamma. The DNA template used in the RNA Pol II assay was a 1,188-bp restriction fragment containing the cytomegalovirus (CMV) immediate early promoter (Promega, Madison, WI). The RNA and DNA oligonucleotides used in the mitochondrial RNA polymerase assay (see Table S1 in the supplemental material) were synthesized and PAGE purified by Thermo Scientific/Dharmacon (Lafayette, CO). RNA primer R12 was 5′-^32P-phosphorylated with [γ-^32P]ATP (3,000 Ci/mmol) and T4 kinase (New England BioLabs, Ipswich, MA).
as §1, with “otherwise. For the RNA PolI inhibition assay, a reaction mixture containing 50 mM HEPES (pH 7.9), 20% glycerol, 100 mM KCl, 1 mM dithiothreitol (DTT), 50 μg/ml calf thymus DNA, 4 mM MgCl2, 5 or 80 μM UTP (0.25 μl of [5,6-^3H]UTP, >25 Ci/mmol; PerkinElmer), 1 mM noncompeting NTP, competing NTP (5 μM for GTP, CTP, and UTP and 25 μM for ATP), and various concentrations (0 to 500 μM) of NTP analogs was preincubated at 30°C for 5 min.” for “otherwise.”
Supplementary Table S1: RNA primer and templates used in mitochondrial RNA
polymerase single nucleotide incorporation assay.
Oligonucleotides Sequencesa
Primer (R12) 5’-[…]-3’
Templates (D18) 3’-[…]-5’
a The bold letter in the template sequences denotes the bases that pair with the incoming NTP. […]

Data set [12] relates to Prostate cells (PC-3). Briefly: Cytotoxicity / ATP level in PC-3 cells, 5-day treatment. Particulars: read-out: Mean CC50 ± SD causing General cellular toxicity: ATP level; PC-3 cells, 5 days.
Protocol: as §3
Cell Culture and Cytotoxicity Studies
as §11, §12, §13, §14, §15, §16, §17, §18, §19, §20, §21, §22, §23, §24, §25, §26

Here are results for 8 compounds from publication PMC4750701, “Role of Mitochondrial RNA Polymerase in the Toxicity of Nucleotide Inhibitors of Hepatitis C Virus” (Antimicrobial Agents and Chemotherapy, 2016).

T1 sequence (O00411 42-1230): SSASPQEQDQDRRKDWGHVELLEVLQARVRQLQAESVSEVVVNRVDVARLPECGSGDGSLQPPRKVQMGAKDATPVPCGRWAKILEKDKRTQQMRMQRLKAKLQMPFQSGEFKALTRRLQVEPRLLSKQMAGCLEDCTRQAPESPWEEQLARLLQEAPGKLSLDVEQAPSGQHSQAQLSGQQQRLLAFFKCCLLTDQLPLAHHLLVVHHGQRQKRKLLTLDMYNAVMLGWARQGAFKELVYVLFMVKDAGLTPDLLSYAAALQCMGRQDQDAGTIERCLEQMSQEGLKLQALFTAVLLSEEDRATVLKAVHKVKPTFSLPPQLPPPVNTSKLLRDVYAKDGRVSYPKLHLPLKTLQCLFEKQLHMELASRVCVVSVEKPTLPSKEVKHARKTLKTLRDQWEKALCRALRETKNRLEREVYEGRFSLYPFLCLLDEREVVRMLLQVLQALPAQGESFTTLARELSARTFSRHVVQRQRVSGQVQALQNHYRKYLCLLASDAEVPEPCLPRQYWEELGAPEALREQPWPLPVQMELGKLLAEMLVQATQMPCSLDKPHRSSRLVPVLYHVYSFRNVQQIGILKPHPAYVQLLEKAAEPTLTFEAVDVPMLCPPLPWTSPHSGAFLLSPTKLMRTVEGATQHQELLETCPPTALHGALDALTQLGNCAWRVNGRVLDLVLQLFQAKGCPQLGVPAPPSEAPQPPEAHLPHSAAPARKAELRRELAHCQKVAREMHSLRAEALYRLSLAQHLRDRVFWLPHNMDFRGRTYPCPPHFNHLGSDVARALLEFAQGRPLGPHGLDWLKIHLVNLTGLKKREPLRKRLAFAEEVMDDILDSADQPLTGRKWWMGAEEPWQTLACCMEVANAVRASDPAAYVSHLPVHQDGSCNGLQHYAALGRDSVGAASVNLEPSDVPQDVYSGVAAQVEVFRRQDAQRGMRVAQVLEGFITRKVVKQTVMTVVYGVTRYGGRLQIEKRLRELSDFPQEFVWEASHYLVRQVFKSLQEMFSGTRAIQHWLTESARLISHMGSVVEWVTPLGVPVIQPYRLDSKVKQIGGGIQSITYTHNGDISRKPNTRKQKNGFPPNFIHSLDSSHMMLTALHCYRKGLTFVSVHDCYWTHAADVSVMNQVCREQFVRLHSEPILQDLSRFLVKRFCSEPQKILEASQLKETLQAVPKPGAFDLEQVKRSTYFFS

On to `C[C@@]1(O)[C@H](O)[C@@H](CO)O[C@H]1n1ccc(N)nc1=O` [2′CMeC, 2′-C-methyl (2′CMe) cytidine], for which the CC50 – broadly, the concentration giving 50% cytotoxicity – at 14 days was 99 ± 18 µM in data set [1] and 76 ± 16 µM in [2]. The half-maximal inhibitory concentration (IC50) (in general, the concentration that inhibits the measured activity by half) in data set [3] came to 230 ± 90 µM. Besides, the cytotoxic concentration (CC50) at 5 days in [4] is over 100 µM; in [5], 64 ± 18 µM; in data set [6], 69 ± 1 µM; in data set [7] it was 49 ± 18 µM; in data set [8], over 89 µM; in data set [9] it was over 89 µM. In addition, the CC50 at 3 days in [10] (PC-3 cells) is 100 µM.
Regarding `C[C@@]1(O)[C@H](O)[C@@H](COP(=O)(O)OP(=O)(O)OP(=O)(O)O)O[C@H]1n1cnc2c(=O)[nH]c(N)nc21` [2′CMeGTP], the “Substrate incorporation (% of NTP [mean ± SD]) of PolRMT” value in data set [11] was 92 ± 33 % of NTP.
Consider `[N-]=[N+]=N[C@]1(CO)O[C@@H](n2ccc(N)nc2=O)[C@H](O)[C@@H]1O` [4′-AzidoC, 4′-azido cytidine], for which the figures for the 50% cytotoxic concentration (CC50) at 14 days in [1] and in data set [2] were over 100 µM and 108 ± 12 µM, respectively. The IC50 in data set [3] came out at 3.8 ± 2 µM. Further, the CC50 at 5 days in [4] was over 100 µM; in [5], over 100 µM; in data set [6], over 89 µM; in [7], 30 ± 6 µM; in [8], over 89 µM; in data set [9], over 89 µM. The compound further came in with a CC50 at 3 days in data set [10] (PC-3 cells) of 4.5 ± 0.3 µM.
In the case of `COc1nc(N)nc2c1ncn2[C@@H]1O[C@H](COP(=O)(N[C@@H](C)C(=O)OCC(C)(C)C)Oc2cccc3ccccc23)[C@@H](O)[C@@]1(C)O` (stereo partly drawn) [BMS-986094], the CC50 in data set [1] was found to be 4.5 ± 1.5 µM; in [2], 2.6 ± 0.5 µM. Besides, the IC50 in data set [3] is 52 µM. Also, the “Substrate incorporation (% of NTP [mean ± SD]) of PolRMT” value in data set [11] was “rates similar to those of their corresponding natural rNTPs”. The compound further displayed a CC50 at 3 days in [10] of 0.48 ± 0.07 µM.
As to `CC(C)OC(=O)[C@H](C)N[P@](=O)(OC[C@H]1O[C@@](C#N)(c2ccc3c(N)ncnn23)[C@](C)(O)[C@@H]1OC(=O)C(C)C)Oc1ccccc1` [GS-6620], in [3], the half-inhibitory concentration (IC50) was over 500 µM.
With `CCOc1nc(N)nc2c1ncn2[C@@H]1O[C@@H]2COP(=O)(OC(C)C)O[C@H]2[C@@]1(C)F` (stereo partly drawn) [PSI-938], the CC50 at 14 days in data set [1] and in data set [2] was over 100 µM throughout. The half-maximal inhibitory concentration (IC50) in data set [3] is over 500 µM. The “Substrate incorporation (% of NTP [mean ± SD]) of PolRMT” value in data set [11] was 1.6 ± 0.2 % of NTP. Also, the CC50 at 5 days in [4] is over 100 µM; in [5], over 100 µM; in data set [6], over 89 µM; in data set [7], over 100 µM; in [8], over 89 µM; in data set [9], over 89 µM. In [12], the CC50 is over 100 µM.
With `C[C@@]1(F)[C@H](O)[C@@H](CO)O[C@H]1n1ccc(N)nc1=O` [PSI-6130], the 50% inhibitory concentration (IC50) in data set [3] is over 500 µM. Besides, the “Substrate incorporation (% of NTP [mean ± SD]) of PolRMT” value in data set [11] is given as 0.81 ± 0.13 % of NTP. In addition, the cytotoxic concentration (CC50) at 5 days in data set [4] is over 100 µM; in data set [5] it was 100 µM; in [6], over 89 µM; in data set [7], over 100 µM; in [8], over 89 µM; in data set [9], over 89 µM. Further, the half-maximal cytotoxic concentration (CC50) in data set [12] is over 100 µM.
In the case of `CC(C)OC(=O)[C@H](C)N[P@](=O)(OC[C@H]1O[C@@H](n2ccc(=O)[nH]c2=O)[C@](C)(F)[C@@H]1O)Oc1ccccc1` [Sofosbuvir], the IC50 in data set [3] is over 500 µM. The “Substrate incorporation (% of NTP [mean ± SD]) of PolRMT” value is recorded as 0.45 ± 0.40 % of NTP in [11] and < 1 % of NTP in data set [11] (listed as sofosbuvir). For the same compound, in data set [12], the CC50 is over 100 µM.
